Measurements taken from US11642352B2, “Methods of treating wandering in Lewy dody dementia” (WOOLSEY PHARMACEUTICALS, INC., priority 2020, dated 2023).
Structures can show the parent of a compound that is named as a salt. Where two headings read alike, the source gives them in different places.

How the values were obtained:
[1] = in vivo, metabolite of fasudil; cited from earlier work
humans (AD) = conditions: cited from earlier work
triple transgenic mice = conditions: 10 or 12 months of age, administered in water at 30 mg/kg and 100 mg/kg; cited from earlier work
[2] = system: triple transgenic mouse model (APP Swedish, MAPT P301L, and PSEN1 M146V); conditions: 10 mg/kg/day intraperitoneally; cited from earlier work
[3] = system: patients with wandering due to VaD; conditions: cited from earlier work
streptozotocin rats = conditions: intraperitoneally; cited from earlier work
APP/PS1 transgenic mice = conditions: 5 and 10 mg/kg/day intraperitoneally; cited from earlier work
[4] = system: patients with Alzheimer's Dementia (AD) and frontotemporal dementia (FTD); experiment: clinical trial of oral fasudil on frequency of wandering (Example 1); format: in vivo, human
Excerpt: Twenty patients, 10 with AD and 10 with FTD and an MMSE score ≤23, who are characterized wanderers, are enrolled into the study and observed for 2 weeks to confirm wandering behavior. […] The double-blind phase is followed by another treatment period of 6 weeks with the opposite treatment assignment (placebo or test drug taken with food).
The following inclusion criteria are applied:
1. Patients 50 years to 90 years of age.
2. Diagnosis of dementia (AD or VaD or mixed type) for at least 6 months.
3. For entering observation period and for entering open label treatment period: Wanders:
• a. Walks distinctly more than average as others of same age and ability AND/OR • b. Elopement behavior ≥3×per week in the opinion of the investigator For entering first double-blind treatment period: Wanders: • a. Walks less than half the mean distance measured in observation period AND/OR • b. Elopement behavior <1× per week in the opinion of the investigator AND/OR • c. Wandering has improved in the opinion of the Investigator. 4. For entering observation period and for entering open label treatment period: • a. MMSE between 10 and 25.
Wandering is measured in term of time in motion and distance traveled (measures of persistent wandering), attempted and successful boundary transgressions (measures of elopement) and patterns like pacing a lapping (indicative of persistent wandering and/or agitation or anxiety) using an electronic tracking device. A typical tracking device would use a combination of accelerometry with positioning, using technology like RFID or Bluetooth in an indoor environment and GPS outdoors. Other wayfinding, orientation and memory-associated wandering incidents are observed and recorded manually.
Wandering is measured in term of time in motion and attempted successful boundary transgression using an electronic tracking device. Other wayfinding, orientation and memory-associated wandering incidents are observed and recorded manually.
The Mini Mental State Exam (MMSE), Woolsey Wandering Questionnaire and Revised Algase Wandering Scale are administered at baseline and at the end of each treatment period. Any change in the use of antipsychotics or anxiolytics that could affect movement during the study is strongly discouraged.

[5] = on drug as compared to placebo, 90 mg/day (30 mg TID)

SMILES: O=S(=O)(c1cccc2c(O)nccc12)N1CCCNCC1 [M3]
- half-life [1]: about 8 hours

SMILES: O=c1ncn2nc(Sc3ccc(F)cc3F)ccc2c1-c1c(Cl)cccc1Cl [Neflamapimod]
- primary endpoint of improving episodic memory (humans (AD); Phase 2): failed
- tau in the cerebrospinal fluid (humans (AD); Phase 2): reducing tau
- Aβ deposition (humans (AD); humans): no effect

SMILES: O=S(=O)(c1cccc2cnccc12)N1CCCNCC1 [fasudil, Hexahydro-1-(5-isoquinolinesulfonyl)-1H-1,4-diazepine monohydrochloride hemihydrate]
- spatial memory (triple transgenic mice): did not observe improvements
- ß-amyloid plaques in vivo [2]: reduce ß-amyloid plaques
- wandering symptoms ([3]; patient with Binswanger-type cerebral infarction, within weeks of beginning treatment): wandering symptoms disappeared
- wandering symptoms ([3]; patient with sequelae of cerebral bleeding and multiple lacunar infarctions): Wandering symptoms disappeared quickly
- latency distance and quadrant time in the Morris water maze (streptozotocin rats): improved
- latency distance and quadrant time in the Morris water maze (APP/PS1 transgenic mice): improved
- wandering ([4]; 90 mg/day (30 mg TID) oral, 6 weeks, AD and FTD patients): significant reduction in wandering
- mean increase in MMSE score, persistent wanderers [4, 5]: greater than 3 points
- reduction of activity levels in persistent wanderers [4, 5]: about 50%
- wayfinding errors and other problematic behaviors in sporadic wanderers ([4]; while on drug, 90 mg/day (30 mg TID)): significant reduction
